# Test results reported in US10407467B2, “Polymyxin derivatives and their use in combination therapy together with different antibiotics” (priority 2013, dated 2019).
# Structures can show the parent of a compound that is named as a salt. Bridge positions count the residues as written; N and C are the ends. Square brackets hold non-standard residues; d marks the D form. Peptide text beside a SMILES is read from it. * marks the point of attachment. ξ: configuration not given here. Thr(3ξ) = CC(O)[C@H](N)C(=O)O; Dab = NCC[C@H](N)C(=O)O; Inp = O=C(O)C1CCNCC1; X4 = NC1CCCC1C(=O)*
# Experiments:
# Assay type in all cases: cell-based
# [1] = system: Acinetobacter baumannii; assay: MIC, compound in combination with a second agent (broth microdilution); conditions: 1:1 (wt:wt) combination with Rifampicin
# Procedure, shortened: (§1)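 Equal-mass combos (compound in TFA or sulphate salt form plus second agent); direct colony suspension, 0.5 McFarland; duplicate wells; MIC expressed as summed concentration of both drugs.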
# [2] = system: Escherichia coli; assay: as above; conditions: 1:1 (wt:wt) combination with Rifampicin
# Procedure, shortened: as §1
# [3] = system: Klebsiella pneumoniae; assay: as above; conditions: 1:1 (wt:wt) combination with Rifampicin; for MIC K. pneumoniae ATCC 4352: strain ATCC 4352
# Procedure, shortened: as §1
# [4] = system: Pseudomonas aeruginosa; assay: as above; conditions: 1:1 (wt:wt) combination with Rifampicin
# Procedure, shortened: as §1
# [5] = system: Acinetobacter baumannii; assay: MIC, sole activity (no second agent); conditions: in the absence of Rifampicin; for MIC A. baumannii ATCC13424: strain ATCC13424
# Procedure, shortened: (§2)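 Inoculum: direct colony suspension (18-24 h MH agar), 0.5 McFarland. Medium: cation-adjusted MHB. Up to 4 strains/species; reported relative to Polymyxin B.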
# [6] = system: Klebsiella pneumoniae; assay: MIC, sole activity (no second agent); conditions: in the absence of Rifampicin; for MIC K. pneumoniae ATCC-BAA2146: strain ATCC-BAA2146; for MIC K. pneumoniae CCUG-59348: strain CCUG-59348
# Procedure, shortened: as §2
# [7] = system: Pseudomonas aeruginosa; assay: MIC, sole activity (no second agent); conditions: in the absence of Rifampicin; for MIC P. aeruginosa CCUG 59626: strain CCUG 59626
# Procedure, shortened: as §2
# [8] = MIC = total drug concentration, strain ATCC BAA-747
# [9] = MIC = total drug concentration, strain CCUG57249
# [10] = MIC = total drug concentration, strain NCTC 13423
# [11] = MIC = total drug concentration, strain NCTC 13424
# [12] = MIC = total drug concentration, strain ATCC25922
# [13] = MIC = total drug concentration, strain NCTC9001
# [14] = MIC = total drug concentration, strain ATCC-BAA-2146
# [15] = MIC = total drug concentration, strain CCUG-59348
# [16] = MIC = total drug concentration, strain NCTC 13438
# [17] = MIC = total drug concentration, strain ATCC 27853
# [18] = MIC = total drug concentration, strain ATCC CRM-9027
# [19] = MIC = total drug concentration, strain ATCC-47
# [20] = MIC = total drug concentration, strain CCUG 59626
# [21] = MIC is total drug concentration
smiles,measurement,setting,value
"CC(C)C[C@@H]1NC(=O)[C@@H](Cc2ccccc2)NC(=O)[C@H](CCN)NC(=O)[C@@H](NC(=O)[C@H](CCN)NC(=O)[C@@H](NC(=O)C2CCCC2N)C(C)O)CCNC(=O)[C@H](C(C)O)NC(=O)[C@H](CCN)NC(=O)[C@H](CCN)NC1=O (stereo partly drawn) [Example 7, (1R,S/2R,S)-2-Aminocyclopentane-carbonyl polymyxin B nonapeptide] (X4-[Thr(3ξ)][Dab][Dab][Dab][dF]L[Dab][Dab][Thr(3ξ)]; lactam 3-C)",MIC A. baumannii ATCC BAA-747,[1]; [8],≤0.06 micrograms/mL
same,MIC A. baumannii CCUG57249,[1]; [9],≤0.06 micrograms/mL
same,MIC A. baumannii NCTC 13423,[1]; [10],≤0.06 micrograms/mL
same,MIC A. baumannii NCTC 13424,[1]; [11],0.125 micrograms/mL
same,MIC E. coli ATCC25922,[2]; [12],≤0.06 micrograms/mL
same,MIC E. coli NCTC9001,[2]; [13],0.25 micrograms/mL
same,MIC K. pneumoniae ATCC 4352,[3]; MIC = total drug concentration,0.125 micrograms/mL
same,MIC K. pneumoniae ATCC-BAA-2146,[3]; [14],0.25 micrograms/mL
same,MIC K. pneumoniae CCUG-59348,[3]; [15],4 micrograms/mL
same,MIC K. pneumoniae NCTC 13438,[3]; [16],0.5 micrograms/mL
same,MIC P. aeruginosa ATCC 27853,[4]; [17],0.125 micrograms/mL
same,MIC P. aeruginosa ATCC CRM-9027,[4]; [18],0.25 micrograms/mL
same,MIC P. aeruginosa ATCC-47,[4]; [19],0.25 micrograms/mL
same,MIC P. aeruginosa CCUG 59626,[4]; [20],0.125 micrograms/mL
same,MIC A. baumannii ATCC13424,[5],2 micrograms/mL
same,MIC A. baumannii ATCCBAA-747,[5]; strain ATCCBAA-747,1 micrograms/mL
same,MIC A. baumannii CCUG57249,[5]; strain CCUG 57249,2 micrograms/mL
same,MIC A. baumannii NCTC 13423,[5]; strain NCTC13423,1 micrograms/mL
same,MIC K. pneumoniae ATCC 4352,[6]; strain ATCC 4352,0.5 micrograms/mL
same,MIC K. pneumoniae ATCC-BAA2146,[6],>32 micrograms/mL
same,MIC K. pneumoniae CCUG-59348,[6],>32 micrograms/mL
same,MIC P. aeruginosa ATCC 27853,[7]; strain ATCC27853,0.125 micrograms/mL
same,MIC P. aeruginosa ATCC-47,[7]; strain ATCC-47,1 micrograms/mL
same,MIC P. aeruginosa ATCCCRM-9027,[7]; strain ATCCCRM-9027,0.125 micrograms/mL
same,MIC P. aeruginosa CCUG 59626,[7],0.125 micrograms/mL
"CC(C)C[C@@H]1NC(=O)[C@@H](Cc2ccccc2)NC(=O)[C@H](CCN)NC(=O)[C@@H](NC(=O)[C@H](CCN)NC(=O)[C@@H](NC(=O)C2CCNCC2)C(C)O)CCNC(=O)[C@H](C(C)O)NC(=O)[C@H](CCN)NC(=O)[C@H](CCN)NC1=O (some centres unmarked) [Example 29, 4-piperidinecarbonyl polymyxin B nonapeptide, trifluoroacetate] (H-[Inp][Thr(3ξ)][Dab][Dab][Dab][dF]L[Dab][Dab][Thr(3ξ)]; lactam 4-C)",MIC A. baumannii ATCC BAA-747,[1]; [8],≤0.06 micrograms/mL
same,MIC A. baumannii CCUG57249,[1]; [9],0.125 micrograms/mL
same,MIC A. baumannii NCTC 13423,[1]; [10],≤0.06 micrograms/mL
same,MIC A. baumannii NCTC 13424,[1]; [11],0.125 micrograms/mL
same,MIC A. baumannii ATCC BAA-747,[1]; [21],≤0.06 micrograms/mL
same,MIC A. baumannii CCUG57249,[1]; [21],0.125 micrograms/mL
same,MIC A. baumannii NCTC 13423,[1]; [21],≤0.06 micrograms/mL
same,MIC A. baumannii NCTC 13424,[1]; [21],0.125 micrograms/mL
same,MIC E. coli ATCC25922,[2]; [12],0.125 micrograms/mL
same,MIC E. coli NCTC9001,[2]; [13],0.25 micrograms/mL
same,MIC E. coli ATCC25922,[2]; [21],0.125 micrograms/mL
same,MIC E. coli NCTC9001,[2]; [21],0.25 micrograms/mL
same,MIC K. pneumoniae ATCC 4352,[3]; MIC = total drug concentration,≤0.06 micrograms/mL
same,MIC K. pneumoniae ATCC-BAA-2146,[3]; [14],0.25 micrograms/mL
same,MIC K. pneumoniae CCUG-59348,[3]; [15],4 micrograms/mL
same,MIC K. pneumoniae NCTC 13438,[3]; [16],0.5 micrograms/mL
same,MIC K. pneumoniae ATCC-BAA-2146,[3]; [21],0.25 micrograms/mL
same,MIC K. pneumoniae CCUG-59348,[3]; [21],4 micrograms/mL
same,MIC K. pneumoniae NCTC 13438,[3]; [21],0.5 micrograms/mL
same,MIC P. aeruginosa ATCC 27853,[4]; [17],0.125 micrograms/mL
same,MIC P. aeruginosa ATCC CRM-9027,[4]; [18],0.125 micrograms/mL
same,MIC P. aeruginosa ATCC-47,[4]; [19],0.25 micrograms/mL
same,MIC P. aeruginosa CCUG 59626,[4]; [20],0.125 micrograms/mL
same,MIC P. aeruginosa ATCC 27853,[4]; [21],0.125 micrograms/mL
same,MIC P. aeruginosa ATCC CRM-9027,[4]; [21],0.125 micrograms/mL
same,MIC P. aeruginosa ATCC-47,[4]; [21],0.25 micrograms/mL
same,MIC P. aeruginosa CCUG 59626,[4]; [21],0.125 micrograms/mL
same,MIC A. baumannii ATCC13424,[5],2 micrograms/mL
same,MIC K. pneumoniae ATCC-BAA2146,[6],>32 micrograms/mL
same,MIC K. pneumoniae CCUG-59348,[6],>32 micrograms/mL
same,MIC P. aeruginosa CCUG 59626,[7],0.125 micrograms/mL
